From paper PMC10781691, “Vertical pathway inhibition of receptor tyrosine kinases and BAD with synergistic efficacy in triple negative breast cancer” (NPJ Precision Oncology, 2024)
Read-outs that look alike come from different tables or passages of the source.

Legend:
VEGFR2 = conditions: ref SelleckChem; read-out: IC50 VEGFR2; cited from earlier work
Flt-3 = system: Flt-3; design: method as in SelleckChem; conditions: ref SelleckChem; cited from earlier work
Ron = system: Ron; design: method as in SelleckChem; conditions: ref SelleckChem; cited from earlier work
c-Met = conditions: cited from earlier work
Axl = system: Axl; design: method as in SelleckChem; conditions: ref SelleckChem; cited from earlier work
[1] = system: MAPK and PI3K/AKT pathways; assay: Western blot of PI3K/AKT and MAPK pathway proteins; assay type: cell-based, human
Method: Next, western blot analyses were performed to determine potential alteration in expression or activity of the target proteins along the MAPK and PI3K/AKT pathways. […] . […] CI analysis method.

MDA-MB-231 cells = assay: Foci formation (crystal violet); conditions: MDA-MB-231, 5 μM each
[2] = system: BAD phosphorylation at Ser99; assay: Western blot of BAD phosphorylation at Ser99 in TNBC cells; assay type: cell-based, human; conditions: MDA-MB-231 and BT549 cells, 1 μM
MDA-MB-231 xenografts = assay: Orthotopic xenograft, combination study; assay type: in vivo, BALB/c-nude mice
Method: (§1) In vivo bioluminescent imaging was performed to determine the incidence and metastatic burden of luciferase-labeled 4T1 cells. Mice were injected i.p. with 10 mg/ml of D-luciferin (Gold Biotechnology, MO, USA) and imaged using a PerkinElmer IVIS Spectrum system. PDX were generated as previously described by transplanting fresh fragments orthotopically into 8-week-old female nonobese diabetic (NOD)/severe combined immunodeficient (SCID) mice (Beijing Vital River Laboratory Animal Technology Co., Beijing, China) (P1, passage 1)[40]. The P1 xenografts were then fragmented, digested into single-cell suspension and implanted into mammary fat pad (100 μL PBS containing growth factor reduced 50% Matrigel) of NOD/SCID mice. Once orthotopic xenografts reached an approximate size of 100 mm^3, the mice were randomly divided into three groups (n = 8) for single drug studies and six groups (n = 6) for combination studies and Kaplan-Meier (KM) analyses. […] Animal body weight and xenograft size were measured daily using an electronic balance and a digital caliper, respectively. Xenograft volume (mm^3) was calculated by using the formula: 0.52 × length × [width]^2. Complete response (CR) was achieved if the average xenograft volume for the treatment group was unable to be determined for two or more consecutive measurements. Partial response (PR) was achieved if the average xenograft volume reduced to <50 mm^3 for two or more consecutive measurements. After 3-week drug treatment, all mice were sacrificed by CO2 inhalation. Tumor and vital organs were weighed and isolated for further analysis. IHC analysis of xenograft histology sections and quantitative polymerase chain reaction (qPCR) were performed as previously described.
Data represent means ± SD. *P < 0.05, **P < 0.01, and ***P < 0.001.
Data represent means ± SD (n=6). *P < 0.05, **P
< 0.01, and ***P < 0.001.
Abbreviations: ALT/GOT, alanine
aminotransferase/ glutamic oxaloacetic transaminase; AST/GPT, aspartate aminotransferase/
glutamic pyruvic transaminase; CREA, creatinine; UREA, urea; and ALB, albumin. Data
represent means ± SD. *P < 0.05, **P < 0.01, and ***P < 0.001.

BT549 cells = assay: Foci formation (crystal violet); conditions: BT549, 5 μM each
4T1-luciferase cells = conditions: 4T1-luciferase metastasis model
Method: Since metastasis is the primary contributor to mortality and poor prognosis for TNBC patients, the therapeutic potential of NCK, TKIs or combined NCK-TKI treatment on TNBC metastasis was further evaluated with an experimental lung metastasis model.
as §1, with “described. […] For PDX, xenograft growth was monitored daily by measurement of the xenograft volume until mice humane endpoint ( ~ 1000 mm^3).” for “described.”
luciferase cell generated metastasis model. Scale bar, 20 µm. (C) Animal weight of each
treatment group was indicated. (D) Changes in relative lung, liver, spleen, heart and kidney
(CRI) or combinations during the study at day 9.

USTC-0 PDX = assay: TNBC patient-derived xenograft; assay type: in vivo, NOD/SCID mice
Method: (§2) The effect of drug treatments on two patient-derived xenograft (PDX) models of TNBC, USTC-0 and USTC-1 were next examined. The use of the USTC-1 PDX was previously reported.
as §1, with “described. […] For PDX, xenograft growth was monitored daily by measurement of the xenograft volume until mice humane endpoint ( ~ 1000 mm^3).” for “described.”

USTC-1 PDX = assay: TNBC patient-derived xenograft; assay type: in vivo, NOD/SCID mice
Method: as §2
as §1, with “described. […] For PDX, xenograft growth was monitored daily by measurement of the xenograft volume until mice humane endpoint ( ~ 1000 mm^3).” for “described.”

ErbB2 = system: ErbB2; design: method as in SelleckChem; conditions: ref SelleckChem; cited from earlier work
Src = system: Src; design: method as in SelleckChem; conditions: ref SelleckChem; cited from earlier work
MEK/ERK = system: MEK/ERK; design: method as in SelleckChem; conditions: ref SelleckChem; cited from earlier work
FGFR1 = conditions: read-out: IC50 FGFR1; ref SelleckChem; cited from earlier work
Raf1 = system: Raf1; design: method as in SelleckChem; conditions: ref SelleckChem; cited from earlier work
VEGFR3 = system: VEGFR3; design: method as in SelleckChem; conditions: ref SelleckChem; cited from earlier work
PDGFR-β = system: PDGFR-β; design: method as in SelleckChem; conditions: ref SelleckChem; cited from earlier work
c-Kit = conditions: ref SelleckChem; read-out: IC50 c-Kit; cited from earlier work
Tie-2 = system: Tie-2; design: method as in SelleckChem; conditions: ref SelleckChem; cited from earlier work

Structure (SMILES): Nc1nccc(Oc2ccc(NC(=O)c3c[nH]cc(-c4ccc(F)cc4)c3=O)cc2F)c1Cl [BMS-794833]
- IC50 (VEGFR2): 15 nM
- IC50 (Flt-3): < 3 nM
- IC50 (Ron): < 3 nM
- IC50 (c-Met; ref SelleckChem, read-out: IC50 c-Met): 1.7 nM
- IC50 (Axl): < 3 nM

Structure (SMILES): C[C@@H](Oc1cc(-c2cnn(C3CCNCC3)c2)cnc1N)c1c(Cl)ccc(F)c1Cl [Crizotinib]
- phosphorylated and total proteins of MAPK and PI3K/AKT pathways ([1]; BT549, 1 μM): significantly reduced the level of p-AKT (Ser473)/AKT
- phosphorylated and total proteins of MAPK and PI3K/AKT pathways ([1]; MDA-MB-231, 1 μM): significantly inhibited the PI3K/AKT pathway
- 2D foci formation (MDA-MB-231 cells): significantly attenuated the capacity for foci formation
- level of pBADSer99/BAD [2]: significantly decreased the level of pBADSer99/BAD
- % Regression: Complete Response (100%) (MDA-MB-231 xenografts; MDA-MB-231 xenograft, day 21): 17%
- % Regression: Partial Response (>50%) (MDA-MB-231 xenografts; MDA-MB-231 xenograft, day 21): 17%
- % Regression: Disease Progression (MDA-MB-231 xenografts; MDA-MB-231 xenograft, day 21 (xenograft volume >100 mm^3)): 66%
- complete regression of xenografts (MDA-MB-231 xenografts; day 21, NCK 20 mg/kg q.d., OSI-930 20 mg/kg q.d., Crizotinib 50 mg/kg b.i.w.): 16.67%
- 2D foci formation (BT549 cells): significantly attenuated the capacity for foci formation
- lung metastases (bioluminescent signals) vs control (4T1-luciferase cells): significantly abrogated lung metastases
- PDX xenograft volume (USTC-0 PDX; USTC-0, 21 days treatment): significantly reduced the xenograft volume
- survival of PDX-bearing mice (USTC-0 PDX; USTC-0, single agents vs vehicle, combinations vs OSI-930 or Crizotinib alone): markedly extended the survival
- Median survival (USTC-0 PDX; USTC-0, vehicle 25.5): 34.5 days
- PDX xenograft volume (USTC-1 PDX; USTC-1, 21 days treatment): significantly reduced the xenograft volume
- Median survival (USTC-1 PDX; USTC-1, vehicle 22.5): 27.0 days

Structure (SMILES): CCOc1cc2ncc(C#N)c(Nc3ccc(F)c(Cl)c3)c2cc1NC(=O)/C=C/CN(C)C [Pelitinib]
- IC50 (ErbB2): 1260 nM
- IC50 (Src): 282 nM
- IC50 (MEK/ERK): 800 nM

Structure (SMILES): Cc1ccc(C(=O)Nc2ccc(CN3CCN(C)CC3)c(C(F)(F)F)c2)cc1C#Cc1cnc2cccnn12 [Ponatinib]
- IC50 (Src): 5.4 nM

Structure (SMILES): CNC(=O)c1cc(Oc2ccc(NC(=O)Nc3ccc(Cl)c(C(F)(F)F)c3)cc2)ccn1 [Sorafenib]
- IC50 (Raf1): 6 nM
- IC50 (c-Kit): 68 nM

Structure (SMILES): COc1ccc2cc(-c3nc(-c4ccc([S+](C)[O-])cc4)[nH]c3-c3ccncc3)ccc2c1 (centres unmarked) [Tie2 kinase inhibitor]
- IC50 (Tie-2): 0.25 nM
